Reference: patent US20190321426A1, “COMBINATION THERAPIES WITH CANNABIS PLANT EXTRACT” (TIKUN OLAM LTD, priority 2016, published 2019)

Assay: Cutaneous wound (skin lesion) at the site of repeated s.c. Copaxone injection in EAE mice
Type: in vivo
Details: s.c. injection on the mice back; 7 mice/group
Experimental: The treatments were given daily, five times a week and usually continued for about 60 days. GA were given s.c (at an injection dose of 1 mg/mouse), and cannabis extracts were administrated i.p. (intraperitoneal).
In mice treated with the Copaxone only (2 out of 7 mice), a skin lesion developed on the mice back at the site of repeated Copaxone injections.

## glatiramer acetate [Copaxone]
  skin lesion at the site of repeated Copaxone injections: 2 out of 7
